This is an account of results in ChEMBL document CHEMBL1275262, “Stereoselective phosphorylation of cyclopropavir by pUL97 and competitive inhibition by maribavir” (Antimicrob Agents Chemother, 2010).

One test relates to Murid betaherpesvirus 1. Put plainly: Antiviral activity against Murine cytomegalovirus infected in severe combined immunodeficient mouse assessed as reduction in viral load. Format: functional.
Test [1] relates to Human betaherpesvirus 5. Put plainly: Antiviral activity against Human cytomegalovirus infected in severe combined immunodeficient mouse with human fetal tissue implanted assessed as reduction in viral replication. Type of test: functional, organism-based.
For test [2], the system named is Human betaherpesvirus 5. Put plainly: Antiviral activity against Human cytomegalovirus. Type of test: functional, organism-based.

Activity calls are given as the source filed them. The rule behind the calls is not given here.

Take `Nc1nc2c(ncn2/C=C2/CC2(CO)CO)c(=O)[nH]1` [FILOCICLOVIR]: the “fold change (FC)” value in the test on Murid betaherpesvirus 1 is given as 2. For the same compound, the result in the test with Human betaherpesvirus 5 [1] was Active.

For orientation: EC50 means the concentration at which the effect is half-maximal. Low values mean an effect from little substance, high ones a need for much substance. Compound `Nc1nc2c(ncn2COC(CO)CO)c(=O)[nH]1` [GANCICLOVIR] returned an EC50 in the test with Human betaherpesvirus 5 [2] of 4.1 µM.
